The values that follow come from paper PMC2881055, “Endocytic pathways mediating oligomeric Aβ42 neurotoxicity” (Molecular Neurodegeneration, 2010).

Series [1] deals with N2A cells. In words: oAβ42-induced neurotoxicity in N2A cells, with inhibitor or siRNA (CellTiter-Glo ATP assay). Type of series: cell-based, mouse. Set-up: effect on Aβ42 toxicity: dose or concentration left out as unconfirmed. The method, then:
Small interfering RNA (siRNA) for the clathrin heavy chain (CLTC, SMARTpool L-004001-00-0005) and control Non-Targeting siRNA were purchased from Dharmacon. Cells were transfected at 20 pmol siRNA in 24-well culture plates using LipofectAmine 2000 according to vendor's recommended transfection protocol. A second transfection was done the next day. These transfected cells were then split and seeded on to 96-well plate in MEM with 10% FBS. 48 hours post-transfection, these cells were treated with oAβ42 for 24 hours.

Series [2] has as its system N2A cells. Set-up: lethality to N2A cells: dose or concentration left out as unconfirmed. As to conditions: cited from earlier work.
Series [3] deals with N2A cells. The protocol:
Mouse neuroblastoma, N2A cells (ATCC) were maintained in MEM (ATCC) supplemented with 10% FBS, 2 mM L-glutamine, 100 U/ml of penicillin, 100 ug/ml of streptomycin, as previously described. 5000 cells per well were plated on to 96-well plates 24 hours prior to treatment to allow attachment. Cells were then treated […] oAβ42 in DMEM medium without phenol red and with 1% N2 supplement (Invitrogen). At the end of the experiment (24 hours post-treatment), cell viability was assessed by relative cellular ATP levels using CellTiter-Glo assay kit (Promega) according to the manufacture's instruction. Statistical significance was established at p < 0.01 by One-way ANOVA with Tukey test for comparison in different groups.
N2A cells were treated with pharmacological inhibitors that block specific steps during endocytosis. […] Chlorpromazine (2 mM), genistein ([…]), PP2 (1 mM) were added to cell cultures at indicated concentrations 1 hr before oAβ42 treatment in DMEM with 1% N2 supplement. The final concentration of vehicle (DMSO) was 0.05% in all cultures.

The next series has as its system neuroblastoma cell line. Set-up: method as in PMID 3796890. The conditions noted are these: cited from earlier work.
In the next series the test system is SH-SY5Y cells. The conditions noted are these: cited from earlier work. The source says:
(§1) Dynamin mediates both clathrin-dependent and -independent endocytosis (for review, [76]). We first used two pharmacological inhibitors to block the dynamin-dependent endocytic pathway, genistein (a general tyrosine kinase inhibitor) and PP2 (a Src family tyrosine kinase inhibitor). […] The result was consistent with previous reports that this agent protected from Aβ induced toxicity in cultured hippocampal neurons and SH-SY5Y cells.

Series [4] has as its system cultured hippocampal neurons. The conditions noted are these: cited from earlier work.
Text: as §1

For series [5], the system named is N2A cells. As to conditions: co-cultures of primary neurons and glia, and Neuro-2A cells (N2A); cited from earlier work. The source says: Here we focus mainly on endocytic pathways in relation to oAβ42 toxicity in N2A cells.

With `CC(C)(C)n1nc(-c2ccc(Cl)cc2)c2c(N)ncnc21` [PP2], in the series with N2A cells [1] (PP2 pre-treatment 1 hr before oAβ42, 24 hours, data not shown), the “effect on Aβ42 toxicity” value is on record as “decreased Aβ42 toxicity though to a lesser extent than genistein”. Besides, in the series on N2A cells [2], the “lethality to N2A cells” value was “lethal”.
As for `CN(C)CCCN1c2ccccc2Sc2ccc(Cl)cc21` [chlorpromazine], the “toxicity to N2A cells” value in the series on N2A cells [3] was “toxic”. The cell viability retained in the series on N2A cells [3] (N2A cells, 2 mM chlorpromazine, ATP-based CellTiter-Glo) is recorded as 90%. For the same compound, the “effect on oAβ42 neurotoxicity” value in the series on N2A cells [1] (2 mM chlorpromazine added 1 hr before oAβ42, 24 hours, data not shown) is “failed to block”. Moreover, the “effect on cells at higher concentration” value with neuroblastoma cell line (10^-4-10^-3 M) is on record as “killed cells”. Further, in the series with neuroblastoma cell line (10^-6-10^-5 M), the “effect on Ca++-mediated toxicity at lower concentration” value is on record as “inhibited Ca^++-mediated toxicity”.
For orientation: IC50 means the concentration at which inhibition is half-maximal. Take `O=c1c(-c2ccc(O)cc2)coc2cc(O)cc(O)c12` [genistein]: the “effect on oAβ42-induced toxicity” value in the series with N2A cells [1] (pre-treated with 10 mM genistein for 1 hour, 10 μM oAβ42 for 24 hours, p < 0.01) is recorded as “significantly inhibited”. In addition, the “protection from Aβ induced toxicity” value (with SH-SY5Y cells; in series [4]) was “protected” in each case. Besides, in the series with N2A cells [2] (read-out: IC50, inhibition of growth of N2A cells, dose-dependent), the IC50 was 18 µM.
Turning to “oAβ42: Oligomer preparation of recombinant Aβ42 (rPeptide), formed in DMSO/Ham's F12 at 4°C for 24 hours”, the “neurotoxicity of the oAβ42 preparation” value in the series on N2A cells [5] was “causes neurotoxicity”.
